Measured values as given in publication PMC11775389, “Catalytic mechanism underlying the regiospecificity of coumarin-substrate transmembrane prenyltransferases in Apiaceae” (Plant and Cell Physiology, 2024).
Where two headings read alike, the source gives them in different places.

Columns and labels:
AgPT1 = settings: read-out: apparent Km, divalent cation
PsPT1 = molecular target: T1, PsPT1 (Pastinaca sativa, UniProt A0A0U1ZEE9); test: UHPLC of prenylated product, microsomes; format: biochemical; settings: C6 product (demethylsuberosin); DMAPP co-substrate, Mg2+, 28 °C; read-out: Demethylsuberosin / (C6-position product) / Umbelliferone
T1 construct: gene PT1; full CDS (with transit peptide) in pGWB502; transient expression in Nicotiana benthamiana leaves, microsomes
Source text: (§1) UHPLC of prenylated product, microsomes on PsPT1

[1] = system: CC(C)=CCOP(=O)(O)OP(=O)(O)O; test: UHPLC of prenylated product, microsomes; format: biochemical, Pastinaca sativa; settings: C6 product (demethylsuberosin), umbelliferone co-substrate, Mg2+, 28 °C
Source text: as §1

O=c1ccc2ccc(O)cc2o1 = test: UHPLC of prenylated product, microsomes; format: biochemical, Pastinaca sativa; settings: D2P8 (T/A), C6 product (demethylsuberosin), DMAPP co-substrate, Mg2+, 28 °C
Source text: as §1

In the case of `CC(C)=CCOP(=O)(O)OP(=O)(O)O` [DMAPP], the Km (AgPT1; umbelliferone co-substrate) is reported as 10 ± 3 µM.
Compound `O=c1ccc2ccc(O)cc2o1` [umbelliferone] has a Km (AgPT1; DMAPP co-substrate) of 40 ± 20 µM and a Km (PsPT1) of 2.7 ± 0.6 µM.
Work on PsPT1 (Pastinaca sativa) yielded a Km [1] of 5 ± 1 µM.
Compound PsPT1 (Pastinaca sativa; T161A) has a Km ([1]; D2P8 (T/A)) of 4.4 ± 0.8 µM and a Km (O=c1ccc2ccc(O)cc2o1) of 47 ± 7 µM.
